Test results reported in patent US12576155B2, “Senolytic and antiinflammatory prodrugs and methods of use thereof” (priority 2019, dated 2026).

Experiments:
Type in all cases: cell-based
[1] = test system: senescent human fibroblasts; test: Other reported senolytic compounds in cultured senescent human fibroblasts; settings: hydroperoxide-, replication-, irradiation- and etoposide-induced senescent cells
Excerpt: (§1) For replication-induced senescence, cells were passaged until they lost the ability to proliferate and became senescent. NBFs were used as senescent cells after approximately 8-9 passages or 12 population doublings. HEFs were used after approximately 35 passages or 50 population doublings. HUVECs were senescent after approximately 18 passages or 24 population doublings.
(§2) For ionizing radiation-induced senescence, MEFs and HEFs were exposed to 10 Gy of ionizing irradiation in an RS 2000 X-ray Biological Irradiator (Rad Source Technologies, Inc.) at a dose rate of 1.205 Gy/min. The day after irradiation, MEFs or HEFs were passaged at a 1:3 dilution and cultured for another three days. Then these cells were plated to carry out further experiments.
For etoposide-induced senescence, MEFs were treated with 2 μM etoposide for 20 hours, and HEFs were treated with 10 μM etoposide for 12-18 hours. […]
(§3) To test the viability of senescent and non-senescent cells treated with SSK1, cells were stained with a mixture of Hoechst 33342 and propidium iodide (PI) (CA1120, Solarbio) to distinguish living and dead cells. […] The plate was incubated at 4° C. for 30 min and observed on a fluorescence microscope or automatic cell imaging system. Viable cells were quantified using a MD Image Xpress Micro XL (Molecular Devices).

senescent cells = test: Cell viability, SSK1 combined with p38 inhibitors; settings: SSK1 0.5 μM plus inhibitor
Protocol: To test the viability of senescent and non-senescent cells treated with SSK1, cells were stained with a mixture of Hoechst 33342 and propidium iodide (PI) (CA1120, Solarbio) to distinguish living and dead cells. After treatment with the small molecules, the cell culture medium was removed, and the cells were washed once with PBS. Then, the cells were stained according to the manufacturer's protocol, where the final concentrations of Hoechst 33342 and PI were 5 μg/ml and 2 μg/ml in PBS buffer. The plate was incubated at 4° C. for 30 min and observed on a fluorescence microscope or automatic cell imaging system. Viable cells were quantified using a MD Image Xpress Micro XL (Molecular Devices).

[2] = test system: β-galactosidase positive senescent human embryonic fibroblasts (HEFs); test: CCK-8 cell viability, SSK2 in etoposide-induced senescent HEFs; settings: increasing doses, 72 h
Protocol: (§4) For etoposide-induced senescence, MEFs were treated with 2 μM etoposide for 20 hours, and HEFs were treated with 10 μM etoposide for 12-18 hours. Three days after treatment, cells were sub-cultured at a 1:3 ratio for 72 hours in a fresh medium before further analysis.
Cultured cells were washed once with PBS and fixed in β-galactosidase staining fix solution for 15 min at room temperature. Cells were then washed three times with PBS and incubated with β-galactosidase staining solution (Beyotime Biotechnology) for 16-20 hours at 37° C. For 12-well plates, 1 ml of β-galactosidase staining solution was added to each well. The plate was sealed with Parafilm to prevent evaporation of the staining medium. After the overnight incubation, cells were washed with PBS and observed under a bright field microscope. For β-galactosidase staining of frozen sections, the frozen sections were dried at 37° C. for 20-30 min and then fixed in β-galactosidase staining fix solution for 15 min at room temperature. The frozen sections were washed three times with PBS and incubated with β-galactosidase staining solution overnight at 37° C. […]
Cell Counting Kit-8 (CCK-8) analysis was also used to assess cell viability. […] The absorbance was measured at 450 nm wavelength.

[3] = test system: primary human chondrocytes isolated from Osteoarthritis patient; test: Viability / apoptosis of primary human OA chondrocytes (CCK-8, Annexin V flow cytometry)
Protocol: Fibroblasts were digested into single cell suspensions by incubation with 0.25% trypsin-EDTA (Invitrogen) at 37° C. for 3-5 min or with accutase at 37° C. for 10 min. Cells were then stained with FITC annexin V and propidium iodide (PI) according to the manufacturer's protocol (FITC Annexin V Apoptosis Detection Kit I, BD Pharmingen™). For chondrocytes Annexin V/7-AAD analysis, the trypsinized live chondrocytes and floating cells were collected, centrifuged and washed with PBS. Cells were stained with the Annexin V Apoptosis Detection Kit (Biolegend, 640934) according to the manufacturer's instruction. Before the flow cytometric analysis, the precision count beads (Biolegend, 424902) were added to count the absolute live cell numbers. Flow cytometry was performed within one hour on an Aria III (BD Biosciences) or FACSVerse (BD Biosciences). Data were analyzed using FlowJo software (FlowJo LLC).
Cell Counting Kit-8 (CCK-8) analysis was also used to assess cell viability. Senescent and non-senescent cells or chondrocytes were inoculated into 96-well plates and cultured overnight. Then cells were treated with vehicle (0.05% DMSO) or different concentrations of SSK2. After 48 h or 72 h, CCK-8 solution (C0041, Beyotime) was added to each well as 1:10 ratio and inoculated for another 2 h. The absorbance was measured at 450 nm wavelength.

[4] = test system: primary mouse fibroblasts and their replication-induced senescent counterparts; test: Cell viability testing, senescent vs non-senescent primary mouse fibroblasts
Protocol: Mouse embryonic fibroblasts (MEFs) were isolated from E13.5 embryos as described previously (Zhao et al., Cell Stem Cell 23, 31-45 e37([…])). Newborn mouse skin fibroblasts (NBFs) were isolated from the skin of day 1-3 newborn mice. Adult mouse lung fibroblasts were isolated from 2-month-old and 23-month-old mice. Briefly, mouse embryonic tissues, skin and lung were obtained from described donor mice. Then, these tissues were minced with forceps and incubated in 2 mg/ml collagenase IV (Gibco) for 2-4 hours at 37° C. After enzyme treatment, cells were collected by centrifugation and resuspended in high-glucose DMEM (Gibco) supplemented with 10% fetal bovine serum (FBS) and 1% penicillin-streptomycin (Gibco). The three types of mouse primary cells were all cultured in a humidified incubator at 37° C. and 5% CO2.
To avoid replication-induced senescent cells, low-passage proliferative NBFs (<3 passages), MEFs (<3 passages), mouse lung fibroblasts (<3 passages), HEFs (<10 passages), and HUVECs (<6 passages) were used as normal controls. To induce cell quiescence, MEFs were cultured in DMEM without FBS for 2 days.
as §1
as §3, with “cells. After treatment with the small molecules, the cell culture medium was removed, and the cells were washed once with PBS.” for “cells.”

[5] = test system: human senescent fibroblasts induced by different stimuli; test: Cell viability, senescent and non-senescent human embryonic fibroblasts (HEFs); settings: human senescent cells; panel of FDA-approved drugs
Protocol: Human embryonic skin fibroblasts (HEFs) were obtained as previously described. Briefly, human embryonic skin tissues, obtained from aborted tissue with informed patient consent, were minced with forceps and incubated in 1 mg/ml collagenase IV for 1-2 hours at 37° C. After enzyme treatment, cells were collected by centrifugation and resuspended in HEF medium (Dulbecco's modified Eagle's medium (DMEM, Gibco) containing 10% fetal bovine serum (FBS, Ausbian), 1% GlutaMAX (Gibco), 1% Non-Essential Amino Acids (NEAA, Gibco) and 1% penicillin/streptomycin (Gibco). Cells were plated on 10 cm tissue culture dishes and grown in 10% FBS DMEM.
as §1, §2, §4, §3

CC1(C)CCC(c2ccc(Cl)cc2)=C(CN2CCN(c3ccc(C(=O)NS(=O)(=O)c4ccc(N[C@H](CCN5CCOCC5)CSc5ccccc5)c(S(=O)(=O)C(F)(F)F)c4)cc3)CC2)C1 [ABT263]
Selective killing of senescent human fibroblasts compared with proliferative cells [1]: selectively killed hydroperoxide-induced senescent human fibroblasts but not replication-induced cells

Oc1ccc(-c2nc(-c3ccncc3)c(-c3ccc(F)cc3)[nH]2)cc1 [SB202190]
Viable cells, SSK1 combined with p38 MAPK inhibitor (senescent cells): impaired SSK1's ability to specifically kill senescent cells

C[S+]([O-])c1ccc(-c2nc(-c3ccncc3)c(-c3ccc(F)cc3)[nH]2)cc1 (stereo not shown) [SB203580]
Viable cells, SSK1 combined with p38 MAPK inhibitor (senescent cells): impaired SSK1's ability to specifically kill senescent cells

O=C(Nc1ccn([C@@H]2O[C@H](CO)C(O)C2(F)F)c(=O)n1)OCc1ccc(O[C@@H]2OC(CO)[C@H](O)C(O)C2O)c([N+](=O)[O-])c1 (stereo partly shown) [SSK2]
Selective killing of senescent HEFs (viable cells) [2]: efficiently and selectively kill β-galactosidase positive senescent human embryonic fibroblasts (HEFs) in a dose-dependent manner
Elimination of OA chondrocytes ([3]; FIG. 16: 10 μM, 72 h, FIG. 17: increasing concentrations): efficiently eliminate primary human chondrocytes isolated from Osteoarthritis patient
Viable human OA chondrocytes with increasing concentrations ([3]; SSK2 treatment for 48 h / 72 h as printed): Dose-dependent elimination of senescent cells

Cc1ccc(-n2nc(C(C)(C)C)cc2NC(=O)Nc2ccc(OCCN3CCOCC3)c3ccccc23)cc1 [Birb796]
Viable cells, SSK1 combined with p38 MAPK inhibitor (senescent cells): impaired SSK1's ability to specifically kill senescent cells

Nc1ccn([C@@H]2O[C@H](CO)[C@@H](O)C2(F)F)c(=O)n1 [gemcitabine]
Selective killing of senescent cells (viable cells) ([4]; increasing doses, senescent vs non-senescent cells): killed both cell types
Cytotoxicity for senescent cells ([4]; mouse senescent cells, panel of FDA-approved drugs): killed both mouse and human senescent cells effectively and potently
Cytotoxicity for senescent cells [5]: killed both mouse and human senescent cells effectively and potently
